Laboratory results taken from patent US20090035876A1, “Electrochemical Assay” (Inverness Medical Switzerland GMBH, priority 2005, published 2009).

Assays:
[1] = biological target: human serum albumin (HSA) (Homo sapiens, UniProt P02768); conditions: probe 25 μM, HSA 500 μM, cyclic voltammetry
Description: Cyclic voltammetry was used to measure the concentration of the ferrocene labelled fatty acid probe with and without the presence of HSA allowing percentage bound to be calculated.

[2] = Photolysis of the UV-cleavable ferrocene molecule in solution, followed by TLC; type: physicochemical; conditions: UV 365 nm, methanolic/PBS solution, 2.18 mM
Experimental: The cleavage study was followed by Thin Layer Chromatography (TLC) after irradiation for a definite time of a methanolic/PBS solution of the UV-cleavable ferrocene 9 (FIG. 3). • After 2 minutes of irradiation, the appearance of two new products was observed; One of them corresponding to the ferrocene product 8 (on the base line), the other one corresponding probably to the nitroso-derivative 10 just under the front line). • Under the irradiation conditions used, the Uv-cleavable ferrocene molecule was completely cleaved in less than 6 minutes.
To a solution of UV-cleavable ferrocene 9 (0.7 mg, 1.09*10^−6 mol) dissolved in 250 μl of methanol was added 250 μl of PBS. 30 μl of this solution was irradiated using a UV model B100A with a wavelength of 365 nm and an intensity of 8,900 μW/cm^2 at 10″. The UV was applied at approximately 15 cm from the solution.
The cleavage was followed by TLC every two minutes. Eluent used: Ethyl acetate/hexane (80/20) and DCM/MeOH/Et3N (85/10/5).

Sequence of human serum albumin (HSA) (P02768 25-609): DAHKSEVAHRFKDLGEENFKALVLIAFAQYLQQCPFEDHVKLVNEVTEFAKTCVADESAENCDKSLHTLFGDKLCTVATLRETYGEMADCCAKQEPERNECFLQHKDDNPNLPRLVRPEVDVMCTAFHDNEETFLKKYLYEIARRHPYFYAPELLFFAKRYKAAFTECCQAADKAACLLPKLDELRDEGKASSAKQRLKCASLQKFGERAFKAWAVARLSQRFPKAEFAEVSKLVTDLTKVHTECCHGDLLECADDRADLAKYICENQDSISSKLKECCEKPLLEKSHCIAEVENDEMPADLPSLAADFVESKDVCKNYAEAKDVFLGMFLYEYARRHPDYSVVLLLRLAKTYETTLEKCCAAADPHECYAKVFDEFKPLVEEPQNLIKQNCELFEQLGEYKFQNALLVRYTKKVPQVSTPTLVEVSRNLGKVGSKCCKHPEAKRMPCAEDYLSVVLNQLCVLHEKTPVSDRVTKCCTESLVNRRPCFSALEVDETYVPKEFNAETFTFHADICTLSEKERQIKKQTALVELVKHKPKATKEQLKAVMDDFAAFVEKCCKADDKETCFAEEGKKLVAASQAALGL

Molecule	percentage bound to HSA [1] [%]	irradiation time until completely cleaved [2]
OC[c-]1cccc1.[Fe+2].c1cc[cH-]c1 [ferrocene methanol]	50	
Thioacetic acid S—[3-(1-{2-[2-(2-ferrocenoylamino-ethoxy)-ethoxy]-ethylcarbamoyloxy}-ethyl)-4-nitro-benzyl]ester [UV-cleavable ferrocene molecule 9]		less than 6 minutes
